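Where inhibition never reached the appropriate level, the endpoint shown equals the highest concentration tested. Otherwise, values were interpolated linearly from a five-concentration, 48-hour dose response in 96-well plates. The concentration for full growth arrest is given as TGI.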
Assays:
Test in all cases: inhibition of tumour cell growth, NCI panel, 48 h
UACC-257 melanoma = system: UACC-257 melanoma
SK-OV-3 ovarian = system: SK-OV-3 ovarian
EKVX NSCLC = system: EKVX NSCLC
SN12C renal = system: SN12C renal
HOP-62 NSCLC = system: HOP-62 NSCLC
SR leukemia = system: SR leukemia
HOP-18 NSCLC = system: HOP-18 NSCLC
ACHN renal = system: ACHN renal
TK-10 renal = system: TK-10 renal
XF 498 CNS = system: XF 498 CNS
OVCAR-4 ovarian = system: OVCAR-4 ovarian
DMS 273 small cell lung = system: DMS 273 small cell lung
A549 NSCLC = system: A549 NSCLC
RXF-631 renal = system: RXF-631 renal
NCI-H460 lung = system: NCI-H460 lung
LOX IMVI melanoma = system: LOX IMVI melanoma
M19-MEL melanoma = system: M19-MEL melanoma
CAKI-1 renal = system: CAKI-1 renal
A498 renal = system: A498 renal
SK-MEL-5 melanoma = system: SK-MEL-5 melanoma
HOP-92 NSCLC = system: HOP-92 NSCLC
HCT-15 colon = system: HCT-15 colon
CCRF-CEM leukemia = system: CCRF-CEM leukemia
NCI-H23 lung = system: NCI-H23 lung
OVCAR-5 ovarian = system: OVCAR-5 ovarian
IGROV1 ovarian = system: IGROV1 ovarian
SK-MEL-28 melanoma = system: SK-MEL-28 melanoma
HT29 colon = system: HT29 colon
SNB-78 CNS = system: SNB-78 CNS
786-0 renal = system: 786-0 renal
HL-60(TB) leukemia = system: HL-60(TB) leukemia
U251 CNS = system: U251 CNS
RPMI-8226 leukemia = system: RPMI-8226 leukemia
DLD-1 colon = system: DLD-1 colon
OVCAR-3 ovarian = system: OVCAR-3 ovarian
DMS 114 small cell lung = system: DMS 114 small cell lung
K-562 leukemia = system: K-562 leukemia
KM12 colon = system: KM12 colon
SW-620 colon = system: SW-620 colon
OVCAR-8 ovarian = system: OVCAR-8 ovarian
UO-31 renal = system: UO-31 renal
MOLT-4 leukemia = system: MOLT-4 leukemia
HCT-116 colon = system: HCT-116 colon
NCI-H226 lung = system: NCI-H226 lung
COLO 205 colon = system: COLO 205 colon
MALME-3M melanoma = system: MALME-3M melanoma
UACC-62 melanoma = system: UACC-62 melanoma
SNB-75 CNS = system: SNB-75 CNS
SNB-19 CNS = system: SNB-19 CNS
M14 melanoma = system: M14 melanoma
SF-295 CNS = system: SF-295 CNS
SF-268 CNS = system: SF-268 CNS
RXF 393 renal = system: RXF 393 renal
HCC-2998 colon = system: HCC-2998 colon
KM20L2 colon = system: KM20L2 colon
NCI-H522 lung = system: NCI-H522 lung
LXFL 529 NSCLC = system: LXFL 529 NSCLC
SF-539 CNS = system: SF-539 CNS
SK-MEL-2 melanoma = system: SK-MEL-2 melanoma

C[C@]12CCC(=O)C=C1CC[C@@H]1[C@@H]2CC[C@]2(C)C(=O)NC(=O)C[C@@H]12
TGI (UACC-257 melanoma): > 100 µM
TGI (SK-OV-3 ovarian): > 100 µM
TGI (EKVX NSCLC): > 100 µM
TGI (SN12C renal): > 100 µM
TGI (HOP-62 NSCLC): > 100 µM
TGI (SR leukemia): > 100 µM
TGI (HOP-18 NSCLC): > 100 µM
TGI (ACHN renal): > 100 µM
TGI (TK-10 renal): > 100 µM
TGI (XF 498 CNS): > 100 µM
TGI (OVCAR-4 ovarian): > 100 µM
TGI (DMS 273 small cell lung): > 100 µM
TGI (A549 NSCLC): > 100 µM
TGI (RXF-631 renal): > 100 µM
TGI (NCI-H460 lung): > 100 µM
TGI (LOX IMVI melanoma): > 100 µM
TGI (M19-MEL melanoma): > 100 µM
TGI (CAKI-1 renal): > 100 µM
TGI (A498 renal): > 100 µM
TGI (SK-MEL-5 melanoma): > 100 µM
TGI (HOP-92 NSCLC): > 100 µM
TGI (HCT-15 colon): > 100 µM
TGI (CCRF-CEM leukemia): > 100 µM
TGI (NCI-H23 lung): > 100 µM
TGI (OVCAR-5 ovarian): > 100 µM
TGI (IGROV1 ovarian): > 100 µM
TGI (SK-MEL-28 melanoma): > 100 µM
TGI (HT29 colon): > 100 µM
TGI (SNB-78 CNS): > 100 µM
TGI (786-0 renal): > 100 µM
TGI (HL-60(TB) leukemia): > 100 µM
TGI (U251 CNS): > 100 µM
TGI (RPMI-8226 leukemia): > 100 µM
TGI (DLD-1 colon): > 100 µM
TGI (OVCAR-3 ovarian): > 100 µM
TGI (DMS 114 small cell lung): > 100 µM
TGI (K-562 leukemia): > 100 µM
TGI (KM12 colon): > 100 µM
TGI (SW-620 colon): > 100 µM
TGI (OVCAR-8 ovarian): > 100 µM
TGI (UO-31 renal): > 100 µM
TGI (MOLT-4 leukemia): > 100 µM
TGI (HCT-116 colon): > 100 µM
TGI (NCI-H226 lung): > 100 µM
TGI (COLO 205 colon): > 100 µM
TGI (MALME-3M melanoma): > 100 µM
TGI (UACC-62 melanoma): > 100 µM
TGI (SNB-75 CNS): > 100 µM
TGI (SNB-19 CNS): > 100 µM
TGI (M14 melanoma): > 100 µM
TGI (SF-295 CNS): > 100 µM
TGI (SF-268 CNS): > 100 µM
TGI (RXF 393 renal): > 100 µM
TGI (HCC-2998 colon): > 100 µM
TGI (KM20L2 colon): > 100 µM
TGI (NCI-H522 lung): > 100 µM
TGI (LXFL 529 NSCLC): > 100 µM
TGI (SF-539 CNS): > 100 µM
TGI (SK-MEL-2 melanoma): > 100 µM

CCOC(=O)NC(=O)c1cn(CCOC(=O)CCCCCCCCC(=O)OCCn2cc(C(=O)NC(=O)OCC)c(=O)[nH]c2=O)c(=O)[nH]c1=O
TGI (UACC-257 melanoma): > 100 µM
TGI (EKVX NSCLC): > 100 µM
TGI (SN12C renal): > 100 µM
TGI (HOP-62 NSCLC): > 100 µM
TGI (SR leukemia): > 100 µM
TGI (HOP-18 NSCLC): > 100 µM
TGI (ACHN renal): > 100 µM
TGI (TK-10 renal): > 100 µM
TGI (XF 498 CNS): > 100 µM
TGI (OVCAR-4 ovarian): > 100 µM
TGI (DMS 273 small cell lung): > 100 µM
TGI (A549 NSCLC): > 100 µM
TGI (RXF-631 renal): > 100 µM
TGI (NCI-H460 lung): > 100 µM
TGI (LOX IMVI melanoma): > 100 µM
TGI (M19-MEL melanoma): > 100 µM
TGI (CAKI-1 renal): > 100 µM
TGI (A498 renal): > 100 µM
TGI (SK-MEL-5 melanoma): > 100 µM
TGI (HOP-92 NSCLC): > 100 µM
TGI (HCT-15 colon): > 100 µM
TGI (CCRF-CEM leukemia): > 100 µM
TGI (NCI-H23 lung): 56.7 µM
TGI (OVCAR-5 ovarian): > 100 µM
TGI (IGROV1 ovarian): > 100 µM
TGI (SK-MEL-28 melanoma): > 100 µM
TGI (HT29 colon): > 100 µM
TGI (SNB-78 CNS): > 100 µM
TGI (786-0 renal): > 100 µM
TGI (HL-60(TB) leukemia): > 100 µM
TGI (RPMI-8226 leukemia): > 100 µM
TGI (DLD-1 colon): > 100 µM
TGI (OVCAR-3 ovarian): > 100 µM
TGI (DMS 114 small cell lung): > 100 µM
TGI (K-562 leukemia): > 100 µM
TGI (KM12 colon): > 100 µM
TGI (SW-620 colon): > 100 µM
TGI (OVCAR-8 ovarian): > 100 µM
TGI (UO-31 renal): > 100 µM
TGI (MOLT-4 leukemia): > 100 µM
TGI (HCT-116 colon): > 100 µM
TGI (NCI-H226 lung): > 100 µM
TGI (MALME-3M melanoma): > 100 µM
TGI (UACC-62 melanoma): > 100 µM
TGI (SNB-75 CNS): > 100 µM
TGI (SNB-19 CNS): > 100 µM
TGI (M14 melanoma): > 100 µM
TGI (SF-295 CNS): > 100 µM
TGI (SF-268 CNS): > 100 µM
TGI (RXF 393 renal): > 100 µM
TGI (HCC-2998 colon): > 100 µM
TGI (KM20L2 colon): > 100 µM
TGI (LXFL 529 NSCLC): > 100 µM
TGI (SF-539 CNS): > 100 µM
TGI (SK-MEL-2 melanoma): > 100 µM
